Measurements: patent US4450167A, “3-Quinoline carboxamides having anxiolytic activity” (Roussel Uclaf, priority 1981, dated 1984)

Each molecule was assayed against benzodiazepine receptors (assay: Affinity for benzodiazepine receptors (3H Diazepam displacement, rat cortex membranes)). Details: rat brain cortex membranes, 3H Diazepam 10^-9 moles, 0° C., 30 minutes; read-out: CI50, concentration inhibiting by 50% the specific bonding of 3H diazepam.
Format: binding
Description: The test was inspired by Mohler et al [Science, No. 198 (1977), p. 849-851] in which the cortex was removed from the brains of male rats weighing an average of 150 g and homogenized at a ratio of 1 part by weight per 20 parts by volume of 0.32 M sucrose. The homogenized mixture was centrifuged at 1000 g for 10 minutes at 0° C. and the surnageant was centrifuged at 30,000 g for 20 minutes at 4° C. The culot was suspended in 20 volumes of Tris HCl 50 mM buffer with a pH of 7.4 and the suspension was centrifuged at 30,000 g for 20 minutes at 4° C. The resulting culot was suspended in 50 ml of Krebs Tris HCl buffered at a pH of 7.4 and 2 ml of the suspension was incubated at 0° C. for 30 minutes in the presence of ^3 H Diazepam at a concentration of 10^-9 moles with increasing concentration of the test product to determine the non-specificfixation with non-radioactive Diazepam at a concentration of 10^-6 moles.
The incubated suspensions were filtered through a Whatman GF/C filter and the filters were washed twice with 5 ml of Krebs Tris HCl buffer at a pH of 7.4 not 0° C. The radioactivity of the filters was measured by liquid scintillation and the affinity of the test product for benzodiazepine receptors was expressed in CI50 or the concentration inhibiting by 50% the specific bonding of ^3 H diapezam.
`CCCNC(=O)c1cnc2ccccc2c1O` [Example 24, 4-hydroxy-N-propyl-3-quinoline-carboxamide] gave an IC50 of 1.2 nM. `O=C(Nc1ccc(O)cc1)c1cnc2ccccc2c1O` [Example 7, 4-hydroxy-N-(4-hydroxyphenyl)-3-quinoline-carboxamide] was tested, and the IC50 was 4.4 nM. With `COc1ccccc1NC(=O)c1cnc2ccccc2c1O` [Example 13, 4-hydroxy-N-(2-methoxy-phenyl)-3-quinoline-carboxamide] the IC50 was 54 nM. `COc1ccc(NC(=O)c2c(C)nc3ccccc3c2O)cc1` [Example 23, 4-hydroxy-N-(4-methoxyphenyl)-2-methyl-3-quinoline-carboxamide] was tested, and the IC50 was 23 nM. With `CCCCCCNC(=O)c1cnc2ccccc2c1O` [Example 10, 4-hydroxy-N-n-hexyl-3-quinoline-carboxamide] the IC50 was 6.7 nM. `CCOc1ccc(NC(=O)c2cnc3ccccc3c2O)cc1` [Example 1, 4-hydroxy-N-(4-ethoxyphenyl)-3-quinoline-carboxamide] showed an IC50 of 40 nM. `COc1cccc(NC(=O)c2cnc3ccccc3c2O)c1` [Example 16, 4-hydroxy-N-(3-methoxy-phenyl)-3-quinoline-carboxamide] showed an IC50 of 6.6 nM. For `CCNC(=O)c1cnc2ccccc2c1O` [Example 8, 4-hydroxy-N-ethyl-3-quinoline-carboxamide], the IC50 was 11 nM. `CCCCNC(=O)c1cnc2ccccc2c1O` [Example 9, 4-hydroxy-N-butyl-3-quinoline-carboxamide] gave an IC50 of 3.7 nM. Molecule `COc1ccc(NC(=O)c2cnc3ccccc3c2O)cc1` [Example 6, 4-hydroxy-N-(4-methoxyphenyl)-3-quinoline-carboxamide] has an IC50 of 7.5 nM.
